pIC50: −log10 of the molar value. Entries after “also recorded” stand apart in the source; their conditions may differ. Read-outs that look alike come from different tables or passages of the source.
Key:
[1] = tested on: ACPA-stimulated OCs; test: ACPA-stimulated osteoclastogenesis with inhibitor, TRAP staining; assay type: cell-based, human
Description: (§1) The medium was exchanged every three days.
(§2) IL-8 was neutralized in the cell supernatants using an anti-IL-8/CXCL8 neutralizing antibody (clone MAB208, R&D systems, UK). PAD activity was inhibited using a pan-PAD inhibitor Cl-amidine (Cayman chemical, Michigan, USA), either at the initiation of the OC cultures or three days before the end of culturing.

[2] = tested on: human neutrophils; details: cited from earlier work
[3] = tested on: mouse neutrophils; details: cited from earlier work
[4] = target: T1, PAD4 (Homo sapiens, UniProt Q9UM07); set-up: endogenous in cells; host or cells: human neutrophils; details: cited from earlier work
Target sequence in this assay (Q9UM07 whole entry): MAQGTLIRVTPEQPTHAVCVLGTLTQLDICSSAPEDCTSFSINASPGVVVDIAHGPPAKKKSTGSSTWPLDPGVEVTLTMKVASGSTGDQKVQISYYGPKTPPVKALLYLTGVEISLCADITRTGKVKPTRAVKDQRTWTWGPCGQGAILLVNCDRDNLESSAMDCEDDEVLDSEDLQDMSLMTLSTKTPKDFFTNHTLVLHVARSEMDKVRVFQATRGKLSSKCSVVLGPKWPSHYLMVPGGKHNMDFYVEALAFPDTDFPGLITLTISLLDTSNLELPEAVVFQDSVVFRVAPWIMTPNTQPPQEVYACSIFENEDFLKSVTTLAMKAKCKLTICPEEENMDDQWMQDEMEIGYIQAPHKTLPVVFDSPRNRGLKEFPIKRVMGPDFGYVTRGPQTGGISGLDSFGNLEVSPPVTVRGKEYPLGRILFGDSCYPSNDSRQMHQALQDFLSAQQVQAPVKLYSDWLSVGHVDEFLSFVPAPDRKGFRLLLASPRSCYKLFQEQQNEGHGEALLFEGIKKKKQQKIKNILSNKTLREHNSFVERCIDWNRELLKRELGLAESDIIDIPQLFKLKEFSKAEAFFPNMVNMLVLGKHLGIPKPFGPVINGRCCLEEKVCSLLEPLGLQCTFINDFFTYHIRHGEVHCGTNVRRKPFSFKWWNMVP

[5] = mouse; cited from earlier work
[6] = rat; cited from earlier work
[7] = target: T1, PAD4; details: cited from earlier work
Target sequence in this assay (Q9UM07 whole entry, species assumed): as the sequence (Q9UM07 whole entry) above

[8] = tested on: Balb/c mice; test: ACPA-induced systemic bone loss in mice, micro-CT of tibia; assay type: in vivo, mouse; details: s.c. twice daily 30 mg/kg/day for 6 days from day 6
Method: Animal experiments were conducted using adult male Balb/c (Harlan) 15 weeks of age. Mice were housed in standard cages (3-5 per cage) in a climate controlled environment maintaining a 12-hour light/dark cycle with access to food and water ad libitum. All experiments were approved by the local ethics committee for animal experiments in Sweden. […] Starting day 6, the CXCR2 antagonist reparixin (L-lysin salt, HY-15252, MedChem Express) was injected subcutaneously (s.c. in 100 μl saline) twice daily (30 mg/kg/day) for 6 days. At the end of the study, mice were anesthetized using 4% isoflurane, decapitated and left hind leg removed and post-fixed in 4% PFA until further analysis.
Bone structure was analyzed using a SkyScan 1176 micro-CT (Bruker) with a voxel size of 9 μm. The scanning was conducted at 50 kV/480 ρA with a 0.2 mm aluminum filter. The exposure time was 900 ms. The x-ray projections were obtained at 0.4° intervals with a scanning angular rotation of 180°. The projection images were reconstructed into 3-dimensional images using NRecon software (version 1.6.9.8; Bruker) and analyzed using CTVox software (version 2.7.0; Bruker). Trabecular bone in tibia located 644 μm from the proximal growth plate and extending 100.5 μm was analysed regarding BMD and 3D analysis and a volume of cortical bone in tibia mesasuring 617 μm in length, located in the distal tibia was measured for TMD, using CTAnalyzer software (version 1.14.4.1; Bruker). The 3D structures of each joint were blindly assessed by two observers (T.J. and M.M.).

[9] = tested on: mice; test: ACPA-induced pain (mechanical hypersensitivity) in mice, von Frey filaments; assay type: in vivo, mouse; details: 5 mg/kg s.c. once daily; C03 2 mg i.v.; p<0.01
Method: Starting day 1, the PAD inhibitor 2-2-Chloroacetamide (C0267, Sigma Aldrich) was injected subcutaneously s.c. (in 100 μl saline with 5% DMSO) once daily (5 mg/kg/day) for 10 days.
Withdrawal thresholds of the hind paws were assessed using von Frey filaments as previously described (Bas, D. B. et al., 2012). In brief, the mice were habituated in individual compartments on top of a wire-mesh surface (Ugo Basile) prior to experiment. On test days, mice were given time to acclimatize and then optiHair filaments (Marstock OptiHair) of increasing buckling force (0.5, 1, 2, 4, 8, 16, and 32 mN) were applied to the plantar surface of the paw until the filament bent slightly. A brisk withdrawal of the paw within 2-3 seconds was noted as a positive response. A 50% withdrawal threshold was calculated using the Dixon up-down method (Chaplan, S. R., et al., 1994) and results from both hind paws were averaged and presented as % of baseline values.

[10] = tested on: ACPA-stimulated OCs; test: ACPA-stimulated OC calcium phosphate resorption with inhibitor; assay type: cell-based, human; details: PADi added from the beginning of the OC cultures
Description: as §1, §2

[11] = tested on: OCs; test: LDH cytotoxicity assay in OC culture supernatants; assay type: cell-based, human; details: OC cultures with PAD inhibitor
Method: (§3) The LDH levels in the cell-free culture supernatants were measured using an LDH cytotoxicity assay kit (Roche Diagnostics Scandinavia AB, Bromma, Sweden) according to the manufacturer's instructions.

[12] = tested on: collagen-induced arthritis; details: Willis et al., cited from earlier work
[13] = tested on: Mφ-derived OCs; test: Mφ-derived osteoclast culture, TRAP staining (OC numbers); assay type: cell-based, human; details: for unstimulated OC differentiation (OC numbers): RANKL and M-CSF, early PAD inhibition (at initiation of OC culture)
[14] = tested on: iDC-derived OCs; test: iDC-derived osteoclast culture, TRAP staining (OC numbers); assay type: cell-based, human; details: RANKL and M-CSF
Description: as §1, §2

[15] = tested on: antibody-mediated arthritis; details: Willis et al.; cited from earlier work
[16] = tested on: citrullinated targets in mature OCs; test: immunohistochemistry of citrullinated targets in mature OCs with PAD inhibitor; assay type: cell-based, human; details: inhibitor added from the beginning of the cultures; mB02 staining
Method: Murinized monoclonal IgG2a ACPAs (D10, B02, C07) and control antibody (E02) were used to investigate the presence of citrullinated proteins during OC maturation. A rabbit polyclonal anti-PAD2 (Cosmo Bio, Tokyo, Japan) and a monoclonal mouse anti-PADI4 (Abcam, Cambridge, UK) antibody were used to investigate the cellular expression of PAD enzymes during OC maturation. Mφ- and iDC-derived OCs were cultured in 8-well glass chamber slides.
Cells at different stages of differentiation were fixed with 2% (vol/vol) formaldehyde (Sigma-Aldrich, Stockholm, Sweden) at 4° C. and stored at −70° C. until use. Following blocking of endogenous peroxidase and avidin-biotin activity, the slides were incubated with primary monoclonal antibodies. HRP conjugated anti-mouse antibody was used as a secondary antibody and developed with 3,3-diaminobenzidene (DAB) for 7 minutes. The slides were counterstained with Mayer's hematoxylin, dehydrated and permanently mounted and viewed using a light microscope (Reichert Polyvar 2 type 302001, Leica).

[17] = tested on: RA-derived synovial fibroblasts; test: LDH cytotoxicity assay in synovial fibroblast supernatants; assay type: cell-based, human; details: PADi at similar doses as in OC cultures
Method: (§4) Synovial fibroblasts were isolated from the synovial tissue of RA patients by enzymatic digestion. The cells were growth at 37° C. in 5% CO2 in Dulbecco's modified Eagle medium (DMEM, Sigma-Aldrich, Stockholm, Sweden) with 10% (v/v) heat-inactivated fatal cow serum (FCS, Sigma-Aldrich, Stockholm, Sweden), 100 U/ml penicillin, 100 μg/ml streptomycin and L-glutamine. The cells at passages 4-8 were used throughout this study. Twenty four-well plates were pre-coated with collagen (50 μg/ml), followed by 1 hour of blocking with 3% BSA (Sigma). A sufficient number of SFs were grown to 80-90% confluence and serum starved for 1-2 hours. The scratches were then made using a P-200 pipette tip. The floating cells were removed by washing with PBS. The cells were incubated with or without PAD inhibitors at the indicated concentration for 48 hours. Light microscope images were taken immediately at 0 and 5 hours after scratching. The images were analyzed using NIH ImageJ. The closure areas were normalized to medium control, and these values represent the migration index.
as §3

[18] = tested on: RA-derived synovial fibroblasts; test: synovial fibroblast in vitro scratch assay (migration index); assay type: cell-based, human; details: PADi at similar doses as in OC cultures
Method: as §4

[19] = target: T1, PAD4; details: cited from earlier work; remark: listed apart in the source
Target sequence in this assay (Q9UM07 whole entry, species assumed): as the sequence (Q9UM07 whole entry) above

[20] = early PAD inhibition, doses as low as 0.2 μM

For adalimumab, the “effect of ACPAs on osteoclastogenesis” value ([1]; antibody concentrations as high as 10 μg/ml) was “No such effects”.
For `COc1cc(C(=O)N2CC[C@@H](O)[C@@H](N)C2)cc2nc(-c3cc4ccccc4n3CC3CC3)n(C)c12` [GSK484, [(3S,4R)-3-amino-4-hydroxy-1-piperidinyl][2-[1-(cyclopropylmethyl)-1H-indol-2-yl]-7-methoxy-1-methyl-1H-benzimidazol-5-yl]-methanone], the “formation of neutrophil extracellular traps” value (“formation” below) [2] is given as “inhibits”, the “formation” value [3] is given as “inhibits” and the “citrullination of PAD4 target proteins in human neutrophils” value [4] is given as “blocks”. The pharmacokinetic profile [5] was “favorable” and the pharmacokinetic profile [6] was “favorable”.
For `Cn1c(-c2nc3cc(C(=O)N4CCCC(N)C4)ccc3n2C)cc2ccccc21` (stereo not drawn) [GSK-121, (3-amino-1-piperidinyl)[1-methyl-2-(1-methyl-1H-indol-2-yl)-1H-benzimidazol-5-yl]-methanone, 2,2,2-trifluoroacetate], the pIC50 ([7]; functional assay, read-out: IC50, inhibition of citrullination of PAD4 target proteins) is listed as 5.49.
For `CC(C)Cc1ccc([C@@H](C)C(=O)NS(C)(=O)=O)cc1` [reparixin], the “ACPA-induced change of bone volume fraction” value [8] was “reversed”, the “ACPA-induced change of trabecular bone mineral density (BMD)” value [8] was “reversed” and the “ACPA-induced change of trabecular number” value [8] was “reversed”.
In the case of `NC(=O)CCl` [2-Chloroacetamide (2CA), 2-Chloroacetamide], the “pain (mechanical hypersensitivity) induced by ACPA antibody C03” value [9] was “prevents”.
In the case of `N=C(CCl)NCCC[C@H](NC(=O)c1ccccc1)C(N)=O` [Cl-amidine, N-α-benzoyl-N5-(2-chloro-1-iminoethyl)-L-Orn amide], the “ACPA-induced calcium phosphate resorption” value [10] is given as “prevented”, the “cell death, LDH release in the supernatants” value [11] is given as “without inducing cell death; also recorded: without any cytotoxic effect” and the “disease activity in collagen-induced arthritis” value [12] is given as “decreases disease activity”. For the same compound, the “bone damage in collagen-induced arthritis” value ([12]; in the context of lower synovial inflammation) was “lower bone damage”, the “unstimulated OC differentiation (OC numbers)” value [13] was “dose-dependent inhibition; also recorded: dose-dependently inhibited” and the “unstimulated OC differentiation (OC numbers)” value ([13]; listed as PADi) was “affects both unstimulated and ACPA-mediate osteoclastogenesis”. The “unstimulated differentiation of OCs” value [13, 20] was “no longer able to affect”, the “ACPA-mediated osteoclastogenesis (OC activation)” value ([1]; PADi added from the beginning of the cultures) was “not able to promote OCs activation; also recorded: affects both unstimulated and ACPA-mediate osteoclastogenesis; also recorded: prevented” and the ACPA-mediated osteoclastogenesis [1, 20] was “still able to inhibit; also recorded: inhibits”. For the same compound, the ACPA-mediated osteoclastogenesis ([1]; late PAD inhibition (three days before ending the OC cultures), doses as high as 20 μM) was “affects only ACPA-mediated osteoclastogenesis”, the “OC differentiation from iDC” value [14] was “dose-dependent inhibition” and the “effect on antibody-mediated arthritis” value [15] was “no effect”. The “staining intensity of citrullinated targets in OCs after PAD inhibitor treatment” value [16] was “markedly diminished”, the “fibroblast survival (LDH assay)” value [17] was “no changes; also recorded: does not affect” and the “fibroblast migration (migration index)” value [18] was “no changes; also recorded: does not affect”.
For “(3-amino-1-piperidinyl)[1-methyl-2-(1-methyl-1H-indol-2-yl)-1H-benzimidazol-5-yl]-methanone, 2,2,2-trifluoroacetate [GSK199]”, the “formation” value [3] is given as “diminish”, the pIC50 ([19]; binds to the low-calcium form of the enzyme) is given as 6.70 and the “selectivity for PAD4 over PAD1-3” value [19] is given as “selective for PAD4 over PAD1-3”. For the same compound, the “inhibition of citrullination of PAD4 target proteins” value [7] was “can inhibit”.

From patent US20170105971A1, “METHODS AND COMPOUNDS FOR THE TREATMENT OF BONE LOSS AND/OR PAIN” (priority 2015, published 2017)
